system: Human prostate cancer cell lines (PC-3 cells); assay: Measurement of cell death-inducing activity (Test Example 1); assay type: cell-based; settings: PC-3, 48 h, 48 hours after addition, tested at 10, 1, 0.1, 0.025 and 0.00625 μmol/L, qualitative evaluation of 10 fields, read-out: Concentration showing the cell death-inducing activity (cell death-inducing rate not less than 40%)
Procedure, shortened: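 Compound treatment lasted 48 h at 10 to 0.00625 μmol/L (five levels, DMSO as control) on PC-3 cells pre-cultured 48 h at 37 °C, 5% CO2 after seeding at 1×10^5 cells/well. A cell death-inducing rate of 40% or more counted as active.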

In order of rising minimal effective concentration:
1. COc1ccc(/C=N/NC(=O)c2sc(-c3ccc(Cl)cc3C)nc2C)cc1O [Example 23-46]  0.025 µM
2. COc1cc(Cl)ccc1-c1cc(C(=O)N/N=C/c2ccc3c(c2)ncn3C)n(C)n1 [Example 21-25]  0.1 µM
3. COc1cc(Cl)ccc1-c1cc(C(=O)N/N=C/c2cc(C)c(O)c(C)c2)[nH]n1 [Example 22-9]  0.1 µM
4. COc1cc(Cl)ccc1-c1cc(C(=O)N/N=C/c2ccc3c(c2)ncn3C)[nH]n1 [Example 22-10]  0.1 µM
5. COc1ccc(/C=N/NC(=O)c2sc(-c3ccccc3Cl)nc2C)cc1O [Example 23-2]  0.1 µM
6. COc1ccc(/C=N/NC(=O)c2sc(-c3ccccc3Cl)nc2C)c(Cl)c1O [Example 23-4]  0.1 µM
7. COc1ccc(/C=N/NC(=O)c2sc(-c3ccc(Cl)cc3)nc2C)cc1O [Example 23-7]  0.1 µM
8. COc1ccc(/C=N/NC(=O)c2sc(-c3ccccc3C)nc2C)cc1O [Example 23-12]  0.1 µM
9. COc1ccc(/C=N/NC(=O)c2sc(-c3ccccc3OC)nc2C)cc1O [Example 23-14]  0.1 µM
10. COc1ccc(/C=N/NC(=O)c2sc(-c3cccc(Cl)c3Cl)nc2C)cc1O [Example 23-15]  0.1 µM
11. COc1ccc(/C=N/NC(=O)c2sc(-c3ccc(C)cc3C)nc2C)cc1O [Example 23-44]  0.1 µM
12. CCCOc1ccccc1-c1nc(C)c(C(=O)N/N=C/c2ccc(OC)c(O)c2)s1 [Example 23-48]  0.1 µM
13. COc1ccc(/C=N/NC(=O)c2cnc(-c3ccccc3C)s2)cc1O [Example 23-50]  0.1 µM
14. COc1ccc(/C=N/NC(=O)c2sc(-c3ccccc3)nc2C)cc1O [Example 23-53]  0.1 µM
15. COc1ccc(/C=N/NC(=O)c2sc(-c3ccccc3OC)nc2C)cc1F [Example 23-68]  0.1 µM
16. COc1ccccc1-c1nc(C)c(C(=O)N/N=C/c2ccc(SC)cc2)s1 [Example 23-70]  0.1 µM
17. COc1ccc(/C=N/NC(=O)c2sc(-c3ccc(F)cc3)nc2C)cc1O [Example 23-73]  0.1 µM
18. COc1ccc(/C=N/NC(=O)c2sc(-c3ccc(Cl)cc3OC)nc2C)cc1O [Example 23-74]  0.1 µM
19. COc1ccc(/C=N/NC(=O)c2sc(-c3ccc(Cl)cc3OC)nc2C)cc1OC [Example 23-78]  0.1 µM
20. COc1ccc(/C=N/NC(=O)c2sc(-c3ccc(Cl)cc3OC)nc2C)cc1 [Example 23-79]  0.1 µM
21. COc1ccc(/C=N/NC(=O)c2sc(-c3ccc(Cl)cc3OC)nc2C)cc1C [Example 23-82]  0.1 µM
22. COc1cc(Cl)ccc1-c1nc(C)c(C(=O)N/N=C/c2ccc3c(c2)CCO3)s1 [Example 23-83]  0.1 µM
23. COc1cc(Cl)ccc1-c1nc(C)c(C(=O)N/N=C/c2cc(C)c(O)c(C)c2)s1 [Example 23-84]  0.1 µM
24. Cc1cc(/C=N/NC(=O)c2cc(-c3ccc(Cl)cc3)n[nH]2)cc(C)c1O [Example 21-21]  1 µM
25. COc1ccc(/C=N/NC(=O)c2cc(-c3ccccc3C)n[nH]2)cc1O [Example 22-3]  1 µM
26. COc1ccccc1-c1cc(C(=O)N/N=C/c2cc(C)c(O)c(C)c2)[nH]n1 [Example 22-6]  1 µM
27. COc1ccc(/C=N/NC(=O)c2cc(-c3ccc(Cl)cc3OC)n[nH]2)cc1O [Example 22-8]  1 µM
28. Cc1cc(/C=N/NC(=O)c2sc(-c3ccc(Cl)cc3)nc2C)cc(C)c1O [Example 23-8]  1 µM
29. COc1ccc(/C=N/NC(=O)c2sc(-c3ccccc3C(F)(F)F)nc2C)cc1O [Example 23-13]  1 µM
30. COc1ccc(/C=N/NC(=O)c2sc(-c3cccc(C)c3C)nc2C)cc1O [Example 23-22]  1 µM
31. Cc1cccc(-c2nc(C)c(C(=O)N/N=C/c3cc(C)c(O)c(C)c3)s2)c1C [Example 23-23]  1 µM
32. COc1ccc(/C=N/NC(=O)c2sc(-c3ncccc3C)nc2C)cc1O [Example 23-26]  1 µM
33. COc1ccc(/C=N/NC(=O)c2sc(-c3ccccn3)nc2C)cc1O [Example 23-28]  1 µM
34. COc1ccc(/C=N/NC(=O)c2sc(-c3csc4ccccc34)nc2C)cc1O [Example 23-38]  1 µM
35. COc1ccc(/C=N/NC(=O)c2sc(-c3cccnc3)nc2C)cc1O [Example 23-41]  1 µM
36. Cc1cccc(-c2nc(C)c(C(=O)N/N=C/c3ccc4c(c3)OCO4)s2)c1C [Example 23-43]  1 µM
37. Cc1ccc(-c2nc(C)c(C(=O)N/N=C/c3ccc(O)c(C)c3)s2)c(C)c1 [Example 23-45]  1 µM
38. Cc1cc(/C=N/NC(=O)c2sc(-c3ccc(Cl)cc3C)nc2C)ccc1O [Example 23-47]  1 µM
39. Cc1ccccc1-c1ncc(C(=O)N/N=C/c2ccc3c(c2)OCO3)s1 [Example 23-52]  1 µM
40. CCCOc1ccccc1-c1nc(C)c(C(=O)N/N=C/c2cc(C)c(O)c(C)c2)s1 [Example 23-55]  1 µM
41. COc1ccc(/C=N/NC(=O)c2sc(-c3ccc(Cl)cc3)nc2C)c(Cl)c1O [Example 23-61]  1 µM
42. COc1ccc(/C=N/NC(=O)c2sc(-c3ccccc3F)nc2C)cc1 [Example 23-65]  1 µM
43. COc1ccc(/C=N/NC(=O)c2sc(-c3cccc(F)c3)nc2C)cc1 [Example 23-66]  1 µM
44. COc1ccc(/C=N/NC(=O)c2sc(-c3ccc(F)cc3)nc2C)cc1 [Example 23-67]  1 µM
45. COc1ccc(/C=N/NC(=O)c2sc(-c3ccccc3F)nc2C)cc1O [Example 23-71]  1 µM
46. COc1ccc(/C=N/NC(=O)c2sc(-c3cccc(F)c3)nc2C)cc1O [Example 23-72]  1 µM
47. COc1cc(Cl)ccc1-c1nc(C)c(C(=O)N/N=C/c2ccc(O)cc2)s1 [Example 23-75]  1 µM
48. COc1cc(Cl)ccc1-c1nc(C)c(C(=O)N/N=C/c2ccc(O)c(C)c2)s1 [Example 23-76]  1 µM
49. COc1cc(Cl)ccc1-c1nc(C)c(C(=O)N/N=C/c2ccc(O)c(O)c2)s1 [Example 23-77]  1 µM
50. COc1cccc(/C=N/NC(=O)c2sc(-c3ccc(Cl)cc3OC)nc2C)c1 [Example 23-80]  1 µM
51. COc1ccc(/C=N/NC(=O)c2sc(-c3ccc(Cl)cc3OC)nc2C)cn1 [Example 23-85]  1 µM
52. O=C(N/N=C/c1ccc(O)c(F)c1)c1cc(-c2ccc(Cl)cc2Cl)n[nH]1 [Example 21-18]  10 µM
53. COc1ccc(/C=N/NC(=O)c2cc(-c3ccccc3Cl)n[nH]2)cc1O [Example 22-1, 5-(2-Chlorophenyl)-2H-pyrazole-3-carboxylic acid [1-(3-hydroxy-4-methoxyphenyl)methylidene]hydrazide]  10 µM
54. COc1ccc(/C=N/NC(=O)c2sc(-c3ccc(Cl)cc3Cl)nc2C)cc1O [Example 23-1, 2-(2,4-Dichlorophenyl)-4-methylthiazole-5-carboxylic acid[1-(3-hydroxy-4-methoxyphenyl)methylidene]hydrazide]  10 µM
55. COc1cc(/C=N/NC(=O)c2sc(-c3ccccc3Cl)nc2C)cc(O)c1OC [Example 23-5]  10 µM
56. Cc1cc(/C=N/NC(=O)c2sc(-c3ccc(Cl)cc3)nc2C)ccc1O [Example 23-11]  10 µM
57. COc1ccc(/C=N/NC(=O)c2sc(-c3ccc(Cl)cc3)nc2C(F)(F)F)cc1O [Example 23-18]  10 µM
58. Cc1cc(/C=N/NC(=O)c2sc(-c3ccc(Cl)cc3)nc2C(F)(F)F)cc(C)c1O [Example 23-19]  10 µM
59. COc1ccc(/C=N/NC(=O)c2sc(-c3ccc(Cl)cc3)nc2C(C)(C)C)cc1O [Example 23-20]  10 µM
60. Cc1cc(/C=N/NC(=O)c2sc(-c3ccc(Cl)cc3)nc2C(C)(C)C)cc(C)c1O [Example 23-21]  10 µM
61. COc1ccc(/C=N/NC(=O)c2sc(-c3cccc(OC)c3OC)nc2C)cc1O [Example 23-24]  10 µM
62. COc1ccc(/C=N/NC(=O)c2sc(-c3nccc4ccccc34)nc2C)cc1O [Example 23-27]  10 µM
63. CCCCCCc1nc(-c2ccc(Cl)cc2)sc1C(=O)N/N=C/c1ccc(OC)c(O)c1 [Example 23-30]  10 µM
64. Cc1ccc(/C=N/NC(=O)c2sc(-c3ccc(Cl)cc3)nc2C)cc1O [Example 23-35]  10 µM
65. COc1ccc(/C=N/NC(=O)c2sc(-c3ccncc3)nc2C)cc1O [Example 23-40]  10 µM
66. COc1ccc(/C=N/NC(=O)c2sc(-c3ccc(Cl)cc3)nc2C)cc1OC [Example 23-42]  10 µM
67. Cc1cc(/C=N/NC(=O)c2cnc(-c3ccccc3C)s2)ccc1O [Example 23-51]  10 µM
68. COc1ccc(/C=N/NC(=O)c2sc(-c3ccccc3O)nc2C)cc1O [Example 23-57]  10 µM
69. Cc1nc(-c2ccc(Cl)cc2)sc1C(=O)N/N=C/c1ccccc1O [Example 23-59]  10 µM
70. COc1cccc(/C=N/NC(=O)c2sc(-c3ccc(Cl)cc3)nc2C)c1O [Example 23-60]  10 µM
71. COc1cc(/C=N/NC(=O)c2sc(-c3ccc(Cl)cc3OC)nc2C)ccc1O [Example 23-81]  10 µM
72. COc1ccc(/C=N/NC(=O)c2sc(-c3ccccc3OC)nc2C)c(O)c1 [Example 23-86]  10 µM

Reference: patent US9200008B2 (ASKA PHARMACEUTICAL CO., LTD., priority 2010, dated 2015)
